# Test results as given in patent US20220162257A1, “3ALPHA, 5BETA-NEUROACTIVE STEROIDS FOR THE TREATMENT OF EPILEPSY AND SEIZURE DISEASES” (USTAV ORGANICKE CHEMIE A BIOCHEMIE AV CR, V. V. I., priority 2019, published 2022).
# Experiments:
# [1] = tested on: PTZ-induced seizures in zebrafish (Danio rerio); test: pentetrazol (PTZ)-induced seizures in zebrafish larvae; type: in vivo; details: 7 dpf larvae, PTZ 5 mmol/L
# Description: Adults wild-type (strain AB) zebrafish (Danio rerio) were maintained at 28-29° C. on a light cycle of 14 h light:10h dark (lights on at 7 am; lights off at 9 pm) at ZeClinics animal facility (Barcelona). All procedures involving animals and their care were conducted accordingly to CEA-OH/9421/2 authorization from Government of Catalonia. Embryos obtained by pairwise mating were raised in E3 media at the controlled temperature of 28.5° C. until 7 days post-fertilization (dpf) when the experiments were performed.
# The anticonvulsant activity of the claimed compounds on the nervous system of zebrafish (Danio rerio). This test is the modern alternative to tests in adult animals as Danio rerio is very versatile organism that has a number of physiological similarities to mammals, including humans (Expert Opin. Drug Metab. Toxicol. 2009, 5, 393). Steroidal compounds were tested in three concentrations (1, 3 and 5 μmol.L^−1) on 7 days post-fertilization (dpf) wild-type larvae. As a negative control, sibling larvae were incubated with DMSO 1%, which allows us to detect behavioral alterations of PTZ treated larvae. Seizures were induced by treatment of pentetrazol (PTZ) at the dose 5 mmol.L^−1. Commercially available anti-convulsant drug Topiramate was used as comparator. Results were analyzed with GraphPad Prism software and statistical significance is assessed by the One-way ANOVA statistical analysis followed by Tukey's multiple comparisons test. The zebrafish larvae locomotion and response to visual stimuli are traced and analyzed by the EthoVision XT 12 software and the DanioVision device from Noldus Information Technologies, Wageningen, The Netherlands.
# This closed system consists of a camera placed above a chamber with circulating water and a temperature sensor that is set at 28° C. Individualized larvae in a 48-wells plate are placed in the chamber, which can provide different stimuli (light/dark environment, tapping, sound) controlled by the software. Prior to each experiment, larvae were left for 10 minutes in dark for acclimation, then predetermined series of alternating dark and light environment are presented to the larvae. The final experimental protocol is divided in three main part: first a 15 minutes step with light on, then a series of 5 short flashes of light to induce epileptic seizures and finally a 25 minutes dark/light alternating environments phase. Different sets of information can be extrapolated from the different phases: while the first step is useful to detect changes in the total larvae locomotion, the second part allows us to analyze the larval response to a seizure-inducing visual stimulus and measure the seizure characteristics: the maximum velocity and the number of angles turns (specific of seizure erratic movement). The final phase is useful to detect anomalies in larval movement and deviations from the stereotyped behavior (natural locomotor behavior of zebrafish is active in dark and immobile in light). The anticonvulsant effect of compounds was studied at doses of […] for the compound shown in Example 1, Example 2 and Example 3.
# [2] = tested on: anxiety parameters in rats; test: Elevated plus maze test (EPM); type: in vivo, rat; details: 10 mg/kg i.p., 30 minutes before maze testing
# Description: Anticonvulsant effect of compounds was evaluated in two models of epileptic seizures in immature rats (PTZ model and 6 Hz model). PTZ convulsions were tested in 12- and 25-day-old rats, 6 Hz-induced seizures in 15- and 25-day-old rats. Young adult rats (P60) were also used in either test. Day of birth was taken as P0. Experiments evaluating precognitive effect were performed in adult male rats of the Wistar and Long Evans strain (3 months old, b.w. 300-400 g). All animals were obtained from a breeding facility of Institute of Physiology CAS (certificate No. 1396/2014-MZE-17214) Animals were held in standard conditions (21±1° C., humidity 50-60%, light regime 12/12) with unrestricted access to food and water. All manipulations with animals were performed according to the https://nc3rs.org.uk/arrive-guidelines and to Czech Animal Protection Law 246/1992 Sb. And international directives (EU Directive 2010/63/EU for animals' experiments).
# Behavioral models of the affective disorders are based on exposure to stress. […]
# In the EPM test, the Compound from Example 1 was administered at doses of 1, 3 and 10 mg/kg, i.p. 30 minutes before maze testing. Time spent in open arms, closed arms, and central platform were recorded during a 10-min test session.
# [3] = tested on: NMDA lesion of the dorsal hippocampus in male rats; test: bilateral excitotoxic NMDA lesion of the dorsal hippocampus; type: in vivo, rat; details: 1 mg/kg i.p. 5 minutes after NMDA lesion, evaluated 24 h
# Description: The tissue damage is induced by infusing NMDA (25 mmol.L^−1) into the dorsal hippocampus in the male rats. The figures in panel (FIG. 9A) show representative images of brain slices of control animals, in panel (FIG. 9B) the group of animals which were administered the solutions containing NMDA into dorsal hippocampus (NMDA lesion) and i.p. treated by (2-hydroxypropyl)-β-cyclodextrin (CDX) and in panel (FIG. 9C) brain slices of the animals, with NMDA lesions of the dorsal hippocampus and i.p. treated by the Compound of Example 1 at a dose of 1 mg/kg dissolved in CDX.
# The neuroprotective effect of the Compound from Example 1 was tested in the model of bilateral excitotoxic lesion of the dorsal hippocampus. The procedure was performed according to literature (Neuropharmacology 2011, 61, 61). This model simulates the overstimulation of NMDA receptors that occurs in the number of pathophysiological states, leading to calcium flow into the neuron's and, consequently, to apoptosis […] necrosis. Clinically, this phenomenon is manifested by neurodegeneration and CNS damage. Rats were randomly divided into three groups. […] Histological damage, e.g. the neuroprotective effect of Compound from Example 1 was evaluated by staining damaged neurons with Fluoro Jade B (Merck Millipore, Catalog Number AG310-30MG), and evaluated areas included: hippocampus-DG, hilus, CA3, CA1.
structure (smiles),measurement,setting,value
"CC(=O)[C@H]1CC[C@H]2[C@@H]3CC[C@@H]4C[C@H](OC(=O)C5CCC(=O)N5)CC[C@]4(C)[C@H]3CC[C@]12C (stereo partly drawn) [Example 1, (3R,5R,8R,9S,10S,13S,14S,17S)-17-Acetyl-10,13-dimethylhexadecahydro-1H-cyclopenta[a]fenantren-3-yl 5-oxopyrrolidine-2-carboxylate]","epileptiform locomotor activity in the dark phase/light test, sedation","[1]; doses of 1, 3 and 5 mg/kg",decreased epileptiform locomotor activity in the dark phase/light test without causing sedation
same,"locomotor activity epileptiform induced by PTZ (spontaneous locomotor activity, maximum velocity, angle turns)","[1]; doses of 1, 3 and 5 mg/kg (1, 3 and 5 μmol/L in the source)",significantly reduced the locomotor activity epileptiform induced by PTZ
same,anxiety parameters,[2],significant reduction of anxiety parameters
same,dorsal hippocampus damage (Fluoro Jade B staining),[3],significant reduction in the dorsal hippocampus damage
